Where a SMILES comes first, the peptide text is derived from it. [ ]: non-standard residue; d: D form. Aib = CC(C)(N)C(=O)O
Tests used:
[1] = system: tumour cell lines; test: DNA flow cytometry (PI/SSC) for apoptosis in tumour cell lines; type: cell-based, human; details: 4 days
Description: • Figure 1 Fluorescence Anisotropy Assay. Average anisotropy values: (open square) binding assay for increasing concentrations of Bcl-XL at a fixed concentration of fluorescent Bak-BH3 peptide. […] The error bars represent standard deviations observed from triplicate experiments. • Figure 2 072RB: cell growth effects. Panel A: Cell growth of U937 cell line treated for four days every 24 h at a 1 µM 072RB concentration and every 48 h at 3, 5, 10 and 30 µM 072RB concentrations. U937 controls at day 4, cell number: 350,000 ±50,000. Number of cells seeded at day 0: 20,000. Arrows indicate treatment time. […] All cells were counted in a Burker chamber and values are expressed as percentage of the untreated control cell number. Only living cells identified by trypan blue exclusion staining were counted. […] Flow cytometry measurements of DNA content (evaluated by propidium iodide (PI) fluorescence intensity) and physical cell side-scattering (evaluated by SSC) in U937 cells treated with Int and 072RB at 10 µM, twice each 48h. […] Three main cell populations can be observed in the bivariate PI/SSC plots, one with low SSC and normal DNA content (that accounts for "live" cells in culture), another with high SSC and normal DNA content (cells undergoing "early stage of apoptosis") and another one with lower PI fluorescence (cells at "late stage of apoptosis" and debris). […]

[2] = system: tumour cell lines; test: Propidium iodide (PI) uptake test, cell viability; type: cell-based, human; details: treated for 4 days; data not shown
Description: PI uptake tests were performed to assess cell viability. Cells suspended in culture medium were incubated for 5 min with 3 µg/ml PI and analysed by flow cytometry. […] At least 10,000 events were acquired on a logarithmic scale from each sample.
Based on the results reported above we selected treatment concentrations of 5 µM and 10 µM for subsequent experiments. […] To evaluate whether the decreased cell growth was due to cell cycle arrest, cell death, or both, flow cytometry assays to assess cell viability and cell cycle behavior were performed. […] Flow cytometry measurements of DNA content and side scatter confirmed that the main cause of cell growth inhibition after 2 or 4 days of 072RB treatment at 5, 10 or 30 µM respectively, was cell death rather than cell cycle perturbation, as shown in Figure 3A for U937 cells. Three main cell populations can be observed in bivariate plots of side scatter (SSC) vs. DNA content (PI fluorescence), one with low SSC and normal DNA content (that accounts for cells "alive" in culture), another with high SSC and normal DNA content (cells undergoing "an early stage of apoptosis ") and another one with lower PI fluorescence (cells at "a late stage of apoptosis" and debris). The respective DNA histograms (projection of the dot plots on the x-axis) are reported for each plot. […]

| Compound | cell death (alive, early- and late-apoptotic fractions) ([1]; three cancer lines, 10 µM) | cell death (PI uptake test) [2] | cell death (alive, early- and late-apoptotic fractions) ([1]; three tumour cell lines, 5 to 10 µM) |
| --- | --- | --- | --- |
| KKWKMRRNPFWIKIQR [Int, internalisation tag, a modified Q50P 16 aa Antennapedia IIIrd α-helix, reference compound] | substantially inactive |  |  |
| CC[C@H](C)[C@H](NC(=O)[C@H](CCCNC(=N)N)NC(=O)[C@H](CCCNC(=N)N)NC(=O)[C@H](CC(C)C)NC(=O)[C@H](CCC(=O)O)NC(=O)[C@H](CCC(N)=O)NC(=O)C(C)(C)NC(=O)[C@@H](NC(=O)[C@H](Cc1ccc(O)cc1)NC(=O)[C@@H](NC(=O)[C@H](CCC(=O)O)NC(=O)[C@@H]1CCCN1C(=O)[C@H](CCCNC(=N)N)NC(=O)[C@H](CCSC)NC(=O)[C@@H](N)CC(=O)O)[C@@H](C)CC)[C@@H](C)CC)C(=O)NCC(=O)N[C@@H](CC(=O)O)C(=O)N[C@@H](C)C(=O)N[C@@H](Cc1ccccc1)C(=O)N[C@@H](CC(N)=O)C(=O)NC(C)(C)C(=O)N[C@@H](Cc1ccc(O)cc1)C(=O)N[C@@H](CCCCN)C(=O)N[C@@H](CCCCN)C(=O)N[C@@H](Cc1c[nH]c2ccccc12)C(=O)N[C@@H](CCCCN)C(=O)N[C@@H](CCSC)C(=O)N[C@@H](CCCNC(=N)N)C(=O)N[C@@H](CCCNC(=N)N)C(=O)N[C@@H](CC(N)=O)C(=O)N1CCC[C@H]1C(=O)N[C@@H](Cc1ccccc1)C(=O)N[C@@H](Cc1c[nH]c2ccccc12)C(=O)N[C@H](C(=O)N[C@@H](CCCCN)C(=O)N[C@H](C(=O)N[C@@H](CCC(N)=O)C(=O)N[C@@H](CCCNC(=N)N)C(N)=O)[C@@H](C)CC)[C@@H](C)CC [Peptide 072RB] (H-DMRPEIYI[Aib]QELRRIGDAFN[Aib]YKKWKMRRNPFWIKIQR-NH2; N-terminus and C-terminus assumed) |  | dose-dependent cell death | Significant cell death |

Source: EP1985629A1, “Pro-apoptotic molecules and therapeutic uses thereof” (UNIVERSITA DEGLI STUDI DI GENOVA, priority 2007, dated 2008)
